{"source": "ChEMBL document CHEMBL1201862", "about": "“PubChem BioAssay data set” (2004)", "experiment_in_all_cases": "DTP human tumour cell line panel, 48 h", "key": {"OVCAR-5": {"test_system": "OVCAR-5"}, "ACHN": {"test_system": "ACHN"}, "U-251": {"test_system": "U-251"}, "BT-549": {"test_system": "BT-549"}, "SNB-19": {"test_system": "SNB-19"}, "SK-MEL-28": {"test_system": "SK-MEL-28"}, "COLO 205": {"test_system": "COLO 205"}, "SW-620": {"test_system": "SW-620"}, "NCI-H226": {"test_system": "NCI-H226"}, "A498": {"test_system": "A498"}, "OVCAR-4": {"test_system": "OVCAR-4"}, "MDA-MB-231": {"test_system": "MDA-MB-231"}, "NCI/ADR-RES": {"test_system": "NCI/ADR-RES"}, "HL-60": {"test_system": "HL-60"}, "SNB-75": {"test_system": "SNB-75"}, "SN12C": {"test_system": "SN12C"}, "Hs-578T": {"test_system": "Hs-578T"}, "KM12": {"test_system": "KM12"}, "HOP-92": {"test_system": "HOP-92"}, "MOLT-4": {"test_system": "MOLT-4"}}, "note": "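Following 48 hours of exposure in 96-well plates, responses at five concentrations were used to interpolate endpoints linearly. Here, GI50 denotes the concentration required for 50% inhibition of growth.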 Calls of active or inactive are those of the source. No stated cut-off is given here; in the data, active = GI50 up to about 1.1 µM and inactive = higher.", "data": [{"smiles": "COc1ccc(OC)c2c1-c1nnnn1CCC2(C)C", "values": [{"measurement": "GI50", "setting": "OVCAR-5", "result": "> 100 µM (inactive)"}, {"measurement": "GI50", "setting": "ACHN", "result": "> 100 µM (inactive)"}, {"measurement": "GI50", "setting": "U-251", "result": "> 100 µM (inactive)"}, {"measurement": "GI50", "setting": "BT-549", "result": "> 100 µM (inactive)"}, {"measurement": "GI50", "setting": "SNB-19", "result": "> 100 µM (inactive)"}, {"measurement": "GI50", "setting": "SK-MEL-28", "result": "> 100 µM (inactive)"}, {"measurement": "GI50", "setting": "COLO 205", "result": "> 100 µM (inactive)"}, {"measurement": "GI50", "setting": "SW-620", "result": "> 100 µM (inactive)"}, {"measurement": "GI50", "setting": "NCI-H226", "result": "> 100 µM (inactive)"}, {"measurement": "GI50", "setting": "A498", "result": "> 100 µM (inactive)"}, {"measurement": "GI50", "setting": "OVCAR-4", "result": "> 100 µM (inactive)"}, {"measurement": "GI50", "setting": "MDA-MB-231", "result": "> 100 µM (inactive)"}, {"measurement": "GI50", "setting": "NCI/ADR-RES", "result": "> 100 µM (inactive)"}, {"measurement": "GI50", "setting": "HL-60", "result": "> 100 µM (inactive)"}, {"measurement": "GI50", "setting": "SNB-75", "result": "> 100 µM (inactive)"}, {"measurement": "GI50", "setting": "SN12C", "result": "> 100 µM (inactive)"}, {"measurement": "GI50", "setting": "Hs-578T", "result": "> 100 µM (inactive)"}, {"measurement": "GI50", "setting": "KM12", "result": "> 100 µM (inactive)"}, {"measurement": "GI50", "setting": "HOP-92", "result": "> 100 µM (inactive)"}, {"measurement": "GI50", "setting": "MOLT-4", "result": "> 100 µM (inactive)"}]}, {"smiles": "CCOC(=O)COC1=Nc2cc(OC)c(OC)c3nc(Cl)cc(c23)C1=O", "values": [{"measurement": "GI50", "setting": "OVCAR-5", "result": "1.94 µM (inactive)"}, {"measurement": "GI50", "setting": "ACHN", "result": "1.66 µM (inactive)"}, {"measurement": "GI50", "setting": "U-251", "result": "2.94 µM (inactive)"}, {"measurement": "GI50", "setting": "BT-549", "result": "1.95 µM (inactive)"}, {"measurement": "GI50", "setting": "SNB-19", "result": "6.08 µM (inactive)"}, {"measurement": "GI50", "setting": "SK-MEL-28", "result": "1.99 µM (inactive)"}, {"measurement": "GI50", "setting": "COLO 205", "result": "1.92 µM (inactive)"}, {"measurement": "GI50", "setting": "SW-620", "result": "2.16 µM (inactive)"}, {"measurement": "GI50", "setting": "NCI-H226", "result": "11.1 µM (inactive)"}, {"measurement": "GI50", "setting": "A498", "result": "11.4 µM (inactive)"}, {"measurement": "GI50", "setting": "OVCAR-4", "result": "1.67 µM (inactive)"}, {"measurement": "GI50", "setting": "MDA-MB-231", "result": "1.76 µM (inactive)"}, {"measurement": "GI50", "setting": "NCI/ADR-RES", "result": "2.97 µM (inactive)"}, {"measurement": "GI50", "setting": "HL-60", "result": "0.252 µM (active)"}, {"measurement": "GI50", "setting": "SNB-75", "result": "2.51 µM (inactive)"}, {"measurement": "GI50", "setting": "SN12C", "result": "1.8 µM (inactive)"}, {"measurement": "GI50", "setting": "Hs-578T", "result": "2.77 µM (inactive)"}, {"measurement": "GI50", "setting": "KM12", "result": "14.8 µM (inactive)"}, {"measurement": "GI50", "setting": "HOP-92", "result": "1.7 µM (inactive)"}, {"measurement": "GI50", "setting": "MOLT-4", "result": "0.383 µM (active)"}]}, {"smiles": "O=C(NC1(C(=O)O)CC1c1ccccc1)c1ccccc1", "note": "(stereo not given)", "values": [{"measurement": "GI50", "setting": "OVCAR-5", "result": "> 100 µM (inactive)"}, {"measurement": "GI50", "setting": "ACHN", "result": "> 100 µM (inactive)"}, {"measurement": "GI50", "setting": "U-251", "result": "> 100 µM (inactive)"}, {"measurement": "GI50", "setting": "BT-549", "result": "> 100 µM (inactive)"}, {"measurement": "GI50", "setting": "SNB-19", "result": "> 100 µM (inactive)"}, {"measurement": "GI50", "setting": "SK-MEL-28", "result": "> 100 µM (inactive)"}, {"measurement": "GI50", "setting": "COLO 205", "result": "> 100 µM (inactive)"}, {"measurement": "GI50", "setting": "SW-620", "result": "> 100 µM (inactive)"}, {"measurement": "GI50", "setting": "NCI-H226", "result": "> 100 µM (inactive)"}, {"measurement": "GI50", "setting": "A498", "result": "> 100 µM (inactive)"}, {"measurement": "GI50", "setting": "OVCAR-4", "result": "> 100 µM (inactive)"}, {"measurement": "GI50", "setting": "MDA-MB-231", "result": "> 100 µM (inactive)"}, {"measurement": "GI50", "setting": "NCI/ADR-RES", "result": "> 100 µM (inactive)"}, {"measurement": "GI50", "setting": "HL-60", "result": "> 100 µM (inactive)"}, {"measurement": "GI50", "setting": "SNB-75", "result": "> 100 µM (inactive)"}, {"measurement": "GI50", "setting": "SN12C", "result": "> 100 µM (inactive)"}, {"measurement": "GI50", "setting": "Hs-578T", "result": "> 100 µM (inactive)"}, {"measurement": "GI50", "setting": "KM12", "result": "> 100 µM (inactive)"}, {"measurement": "GI50", "setting": "HOP-92", "result": "> 100 µM (inactive)"}, {"measurement": "GI50", "setting": "MOLT-4", "result": "> 100 µM (inactive)"}]}, {"smiles": "CCOC(=O)c1c(CN2CCNCC2)nc2ccccc2c1-c1ccccc1", "values": [{"measurement": "GI50", "setting": "OVCAR-5", "result": "16.8 µM (inactive)"}, {"measurement": "GI50", "setting": "ACHN", "result": "16.8 µM (inactive)"}, {"measurement": "GI50", "setting": "U-251", "result": "14.3 µM (inactive)"}, {"measurement": "GI50", "setting": "BT-549", "result": "17.2 µM (inactive)"}, {"measurement": "GI50", "setting": "SNB-19", "result": "17.5 µM (inactive)"}, {"measurement": "GI50", "setting": "SK-MEL-28", "result": "11.7 µM (inactive)"}, {"measurement": "GI50", "setting": "COLO 205", "result": "14.3 µM (inactive)"}, {"measurement": "GI50", "setting": "SW-620", "result": "17.1 µM (inactive)"}, {"measurement": "GI50", "setting": "NCI-H226", "result": "18.6 µM (inactive)"}, {"measurement": "GI50", "setting": "A498", "result": "14.6 µM (inactive)"}, {"measurement": "GI50", "setting": "OVCAR-4", "result": "15 µM (inactive)"}, {"measurement": "GI50", "setting": "MDA-MB-231", "result": "15.6 µM (inactive)"}, {"measurement": "GI50", "setting": "NCI/ADR-RES", "result": "16.2 µM (inactive)"}, {"measurement": "GI50", "setting": "HL-60", "result": "12.9 µM (inactive)"}, {"measurement": "GI50", "setting": "SNB-75", "result": "7.03 µM (inactive)"}, {"measurement": "GI50", "setting": "SN12C", "result": "14.7 µM (inactive)"}, {"measurement": "GI50", "setting": "Hs-578T", "result": "16.1 µM (inactive)"}, {"measurement": "GI50", "setting": "KM12", "result": "15.6 µM (inactive)"}, {"measurement": "GI50", "setting": "HOP-92", "result": "4.69 µM (inactive)"}, {"measurement": "GI50", "setting": "MOLT-4", "result": "10.8 µM (inactive)"}]}, {"smiles": "CCCN(C(=O)c1c(Cl)nnc(Cl)c1C(=O)c1cc(Cl)nnc1Cl)c1cc(Cl)nnc1Cl", "values": [{"measurement": "GI50", "setting": "OVCAR-5", "result": "21 µM (inactive)"}, {"measurement": "GI50", "setting": "ACHN", "result": "12.9 µM (inactive)"}, {"measurement": "GI50", "setting": "U-251", "result": "16.2 µM (inactive)"}, {"measurement": "GI50", "setting": "BT-549", "result": "9.73 µM (inactive)"}, {"measurement": "GI50", "setting": "SNB-19", "result": "27.8 µM (inactive)"}, {"measurement": "GI50", "setting": "SK-MEL-28", "result": "12.9 µM (inactive)"}, {"measurement": "GI50", "setting": "COLO 205", "result": "5.77 µM (inactive)"}, {"measurement": "GI50", "setting": "SW-620", "result": "6.67 µM (inactive)"}, {"measurement": "GI50", "setting": "NCI-H226", "result": "18.5 µM (inactive)"}, {"measurement": "GI50", "setting": "A498", "result": "15.5 µM (inactive)"}, {"measurement": "GI50", "setting": "OVCAR-4", "result": "14.5 µM (inactive)"}, {"measurement": "GI50", "setting": "MDA-MB-231", "result": "15.7 µM (inactive)"}, {"measurement": "GI50", "setting": "NCI/ADR-RES", "result": "6.7 µM (inactive)"}, {"measurement": "GI50", "setting": "HL-60", "result": "2.48 µM (inactive)"}, {"measurement": "GI50", "setting": "SNB-75", "result": "15.3 µM (inactive)"}, {"measurement": "GI50", "setting": "SN12C", "result": "12.4 µM (inactive)"}, {"measurement": "GI50", "setting": "Hs-578T", "result": "3.24 µM (inactive)"}, {"measurement": "GI50", "setting": "KM12", "result": "11.5 µM (inactive)"}, {"measurement": "GI50", "setting": "HOP-92", "result": "18.4 µM (inactive)"}, {"measurement": "GI50", "setting": "MOLT-4", "result": "3.36 µM (inactive)"}]}]}
